Experimental data published in the NIST ThermoML archive (doi:10.1016/j.fluid.2007.06.012).
Numbers after ± are expanded uncertainties.

Details: Liquid, Closed cell (Static) method

FC(F)(F)C(F)(F)F [hexafluoroethane]
vapor or sublimation pressure (243.33 K): 769 ± 3 kPa
vapor or sublimation pressure (245.32 K): 816 ± 3 kPa
vapor or sublimation pressure (249.31 K): 928 ± 3 kPa
vapor or sublimation pressure (253.29 K): 1048 ± 3 kPa
vapor or sublimation pressure (257.31 K): 1183 ± 4 kPa
vapor or sublimation pressure (261.29 K): 1328 ± 4 kPa
vapor or sublimation pressure (265.28 K): 1489 ± 4 kPa
vapor or sublimation pressure (269.27 K): 1659 ± 4 kPa
vapor or sublimation pressure (273.27 K): 1847 ± 4 kPa
vapor or sublimation pressure (277.24 K): 2050 ± 4 kPa
vapor or sublimation pressure (281.23 K): 2270 ± 5 kPa
vapor or sublimation pressure (283.23 K): 2387 ± 5 kPa
vapor or sublimation pressure (285.23 K): 2509 ± 5 kPa
vapor or sublimation pressure (287.22 K): 2636 ± 5 kPa
vapor or sublimation pressure (289.22 K): 2769 ± 5 kPa
vapor or sublimation pressure (290.23 K): 2839 ± 5 kPa
vapor or sublimation pressure (290.72 K): 2873 ± 5 kPa
vapor or sublimation pressure (291.22 K): 2909 ± 5 kPa
vapor or sublimation pressure (291.72 K): 2946 ± 5 kPa
vapor or sublimation pressure (292.22 K): 2982 ± 5 kPa
